Data from patent US8575188B2 (priority 2009, dated 2013).

Legend:
[1] = tested on: human non small cell lung cancer cell line H460; test: Antiproliferation (cytotoxicity) assay, 72 hrs under air, Alamar Blue; format: cell-based; details: Homo sapiens, NCI-H460; H460, inhibition of proliferation, 72 hrs under air; read-out: IC50
[2] = tested on: human prostate cancer cell line PC-3; test: Antiproliferation assay, 72 hrs under air, Alamar Blue; format: cell-based; details: Homo sapiens, read-out: PC3 IC50
[3] = tested on: human colon cancer cell line HT-29; test: as above; format: cell-based; details: Homo sapiens, HT-29, read-out: HT29 IC50
[4] = tested on: human melanoma cell line SKMEL2; test: as above; format: cell-based; details: Homo sapiens, SK-MEL-2, read-out: SKMEL-2 IC50
[5] = tested on: human melanoma cell line SKMEL-28; test: as above; format: cell-based; details: Homo sapiens, SK-MEL-28
[6] = tested on: human melanoma cell line A375; test: as above; format: cell-based; details: Homo sapiens, A-375
[7] = tested on: human melanoma cell line MAMLE-3M; test: as above; format: cell-based; details: Homo sapiens
[8] = tested on: human prostate cancer cell line DU145; test: as above; format: cell-based; details: Homo sapiens, DU-145
[9] = tested on: human prostate cancer cell line LNCap; test: as above; format: cell-based; details: Homo sapiens, LNCaP
[10] = tested on: human ovarian cancer cell line IGROV-1; test: as above; format: cell-based; details: Homo sapiens, IGROV-1
[11] = tested on: Messa ovarian carcinoma cell line; test: Efflux pump drug resistance, antiproliferation assay, parent line; format: cell-based; details: Homo sapiens, MES-SA, 72 h, air, 3 days; read-out: Air 3d MESSA prol. IC50
Procedure: […] Cells were treated with test compounds at various concentrations under air for 72 hrs, and then cell viability and proliferation were assessed by Alamar Blue staining.
(§1) Cellular drug resistance was determined using the antiproliferation assay described above.

[12] = tested on: DX5, which over expresses the MDR 1 efflux pump; test: Efflux pump drug resistance, antiproliferation assay, MDR 1 over expressing line; format: cell-based; details: MDR1, 72 h, air, 3 days; read-out: Air 3d DX5 prol. IC50
Procedure: (§2) The compounds were screened for cytotoxicity using human non small cell lung cancer cell line H460. […]
as §1

[13] = tested on: H69 small cell lung cancer line; test: Efflux pump drug resistance, antiproliferation assay, parent line; format: cell-based; details: 72 h, air, 3 days; read-out: Air 3d H69 prol. IC50
Procedure: as §2, §1

pcDNA = test: as above; format: cell-based; details: 72 h, air, 3 days; read-out: Air 3d pcDNA prol. IC50
Procedure: as §2, §1

[14] = tested on: MRP1 over expressing H69AR line; test: Efflux pump drug resistance, antiproliferation assay, MRP1 over expressing line; format: cell-based; details: Homo sapiens, 72 h, air, 3 days, read-out: Air 3d H69ar (MRP1) prol. IC50
Procedure: as §2, §1

[15] = tested on: BCRP, which over expressed the breast cancer resistance protein; test: Efflux pump drug resistance, antiproliferation assay, BCRP over expressing line
Procedure: as §2, §1

[16] = Bone marrow progenitor cell clonogenic assay (CFU-GM), mouse; details: mouse
Procedure: (§3) A clonogenic assay was performed using bone marrow progenitor cells derived from the blood of mice and humans.

[17] = tested on: bone marrow progenitor cells; test: as above; details: Mus musculus, CFU-GM, read-out: Mouse CFU-GM (IC50 nM) THLD
Procedure: as §3

[18] = Bone marrow progenitor cell clonogenic assay (CFU-GM), human; details: human
Procedure: as §3

[19] = tested on: bone marrow progenitor cells; test: as above; details: Homo sapiens, CFU-GM, read-out: Human CFU-GM (IC50 nM) THLD
Procedure: as §3

human colon cancer HT-29 = test: Xenograft model, subcutaneous, tumor growth inhibition and body weight loss
Method in brief: (§4)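 Cells implanted subcutaneously in the flank; at ~150 mm^3 tumors, mice randomized to groups of 10, with a vehicle-only arm. TGI=(1−T/C)%, T/C=(Tn−Ti)/(Cn−Ci), Day n being the last measurement before any vehicle animal was euthanized; euthanasia above 2000 mm^3.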

[20] = tested on: human non small cell lung cancer H-460; test: as above
Method in brief: as §4

[21] = tested on: human prostate cancer PC-3; test: as above
Method in brief: as §4

[22] = Brain penetration, AUC in brain versus AUC plasma; details: mouse
Procedure: Certain compounds of the invention were assessed for brain penetration by comparing the AUC for plasma exposure versus the AUC in brain.

Oral bioavailability = details: rat, in vivo, Sprague-Dawley rats
Source text: Rats are often a useful species for predicting oral bioavailablity in humans.

[23] = In vivo pharmacokinetics, oral gavage; details: CD, mouse, in vivo, po
Procedure: The data normalized to a 50 mg/kg dose are shown below (compounds were dosed at either 25 or 50 mg/kg).

[24] = tested on: IGROV1 human ovarian cancer cells; test: Xenograft model of metastatic ovarian cancer (i.p.), survival; details: IGROV1 i.p., median survival treated / vehicle times 100; PO, QD × 5/wk, 4 weeks, 40 mg/Kg
Procedure: One arm was dosed with only vehicle and the results used for the efficacy calculations. […] A xenograft model of metastatic ovarian cancer was set up by the intraperitoneal (i.p) injection of 3×10^6 IGROV1 human ovarian cancer cells in nude mice. Mice were evaluated twice a week for morbidity and mortality. Kaplan-Meier survival curves were plotted.

`CCc1c2c(nc3ccccc13)-c1c(N)c3c(c(=O)n1C2)COC(=O)[C@]3(O)CC` [TH1338] showed an IC50 [1] of 7.2 nM, an IC50 [2] of 24 nM and an IC50 [3] of 302 nM. For the same molecule, the IC50 [4] was 130 nM, the IC50 [5] was over 10000 nM and the IC50 [6] was 7 nM. The IC50 [7] was 1200 nM, the IC50 [8] was 18 nM and the IC50 [9] was 120 nM. For the same molecule, the IC50 [10] was 20 nM, the IC50 [11] was 4.3 nM and the IC50 [12] was 12 nM. It also gave an IC50 [13] of 110 nM, an IC50 (pcDNA) of 4.3 nM and an IC50 [14] of 240 nM. For the same molecule, the IC50 ([15]; 72 h, read-out: Air 3d BCRP prol. IC50 nM, air, 3 days) was 4.9 nM, the “3d BCRP/pcDNA” value ([15]; ratio of IC50s, BCRP over expressing versus parent line, 3 days) was 1.1395 and the IC90 [16] was 4500 nM. The IC50 [17] was 620 nM, the IC90 [18] was 650 nM and the IC50 [19] was 100 nM. For the same molecule, the “TGI (%)” value (human colon cancer HT-29; HT29, PO, QD × 5/wk, 4 weeks, 40 mg/Kg) was 100.7%, the “Max. BWL (%)” value (human colon cancer HT-29; mouse, in vivo, po, 40 mg/kg) was 2.9% and the “TGI (%)” value ([20]; H460, PO, QD × 5/wk, 2 weeks, 40 mg/Kg) was 84.3%. For the same molecule, the “Max. BWL (%)” value ([20]; mouse, in vivo, po, 40 mg/kg) was 1.5%, the “TGI (%)” value ([21]; PC3, PO, QD × 5/wk, 2 weeks, 40 mg/Kg) was 107% and the “Max. BWL (%)” value ([21]; mouse, in vivo, po, 40 mg/kg) was 7%. The Kp [22] was 0.7, the bioavailability (Oral bioavailability) was 88.9% and the half-life [23] was 4.17 h. It also gave an AUC ([23]; 50 mg/kg) of 1070 ng·h/mL, a Cmax ([23]; 50 mg/kg) of 250 ng/mL and a T/C [24] of 221.
